Test results taken from paper PMC3914206.

Columns and labels:
panel of 442 kinases [1] = molecular target: T1, panel of 442 kinases (Homo sapiens, UniProt Q8N4C8); format: binding; conditions: Compound Concentration 10 µM
T1 construct: purchased KINOMEscan
Source text: (§1) We assessed the selectivity of members of this scaffold using the KINOMEscan methodology across a near comprehensive panel of 442 kinases [[18,27]].

panel of 442 kinases [2] = molecular target: T2, panel of 442 kinases (Homo sapiens, UniProt Q9UPZ9); format: binding; conditions: Compound Concentration 10 µM
T2 construct: purchased KINOMEscan
T2 sequence (Q9UPZ9 1-632): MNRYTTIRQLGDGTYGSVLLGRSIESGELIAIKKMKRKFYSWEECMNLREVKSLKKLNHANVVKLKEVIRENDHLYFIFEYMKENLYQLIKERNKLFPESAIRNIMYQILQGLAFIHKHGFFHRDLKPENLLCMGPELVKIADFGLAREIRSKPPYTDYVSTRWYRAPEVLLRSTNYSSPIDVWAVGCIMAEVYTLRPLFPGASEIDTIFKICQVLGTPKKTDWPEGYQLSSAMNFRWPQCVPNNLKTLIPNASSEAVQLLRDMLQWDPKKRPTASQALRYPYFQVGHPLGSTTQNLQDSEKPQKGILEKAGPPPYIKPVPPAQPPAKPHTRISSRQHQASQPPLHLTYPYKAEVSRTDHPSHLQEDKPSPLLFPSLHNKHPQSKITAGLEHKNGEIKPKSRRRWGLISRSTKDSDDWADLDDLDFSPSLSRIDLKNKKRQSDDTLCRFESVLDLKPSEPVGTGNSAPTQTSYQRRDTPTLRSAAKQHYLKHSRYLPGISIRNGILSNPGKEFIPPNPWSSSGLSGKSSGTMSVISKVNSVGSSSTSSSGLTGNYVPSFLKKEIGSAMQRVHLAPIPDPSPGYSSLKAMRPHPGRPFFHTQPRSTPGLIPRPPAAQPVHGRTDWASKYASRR
Source text: as §1

T1 sequence (Q8N4C8 whole entry): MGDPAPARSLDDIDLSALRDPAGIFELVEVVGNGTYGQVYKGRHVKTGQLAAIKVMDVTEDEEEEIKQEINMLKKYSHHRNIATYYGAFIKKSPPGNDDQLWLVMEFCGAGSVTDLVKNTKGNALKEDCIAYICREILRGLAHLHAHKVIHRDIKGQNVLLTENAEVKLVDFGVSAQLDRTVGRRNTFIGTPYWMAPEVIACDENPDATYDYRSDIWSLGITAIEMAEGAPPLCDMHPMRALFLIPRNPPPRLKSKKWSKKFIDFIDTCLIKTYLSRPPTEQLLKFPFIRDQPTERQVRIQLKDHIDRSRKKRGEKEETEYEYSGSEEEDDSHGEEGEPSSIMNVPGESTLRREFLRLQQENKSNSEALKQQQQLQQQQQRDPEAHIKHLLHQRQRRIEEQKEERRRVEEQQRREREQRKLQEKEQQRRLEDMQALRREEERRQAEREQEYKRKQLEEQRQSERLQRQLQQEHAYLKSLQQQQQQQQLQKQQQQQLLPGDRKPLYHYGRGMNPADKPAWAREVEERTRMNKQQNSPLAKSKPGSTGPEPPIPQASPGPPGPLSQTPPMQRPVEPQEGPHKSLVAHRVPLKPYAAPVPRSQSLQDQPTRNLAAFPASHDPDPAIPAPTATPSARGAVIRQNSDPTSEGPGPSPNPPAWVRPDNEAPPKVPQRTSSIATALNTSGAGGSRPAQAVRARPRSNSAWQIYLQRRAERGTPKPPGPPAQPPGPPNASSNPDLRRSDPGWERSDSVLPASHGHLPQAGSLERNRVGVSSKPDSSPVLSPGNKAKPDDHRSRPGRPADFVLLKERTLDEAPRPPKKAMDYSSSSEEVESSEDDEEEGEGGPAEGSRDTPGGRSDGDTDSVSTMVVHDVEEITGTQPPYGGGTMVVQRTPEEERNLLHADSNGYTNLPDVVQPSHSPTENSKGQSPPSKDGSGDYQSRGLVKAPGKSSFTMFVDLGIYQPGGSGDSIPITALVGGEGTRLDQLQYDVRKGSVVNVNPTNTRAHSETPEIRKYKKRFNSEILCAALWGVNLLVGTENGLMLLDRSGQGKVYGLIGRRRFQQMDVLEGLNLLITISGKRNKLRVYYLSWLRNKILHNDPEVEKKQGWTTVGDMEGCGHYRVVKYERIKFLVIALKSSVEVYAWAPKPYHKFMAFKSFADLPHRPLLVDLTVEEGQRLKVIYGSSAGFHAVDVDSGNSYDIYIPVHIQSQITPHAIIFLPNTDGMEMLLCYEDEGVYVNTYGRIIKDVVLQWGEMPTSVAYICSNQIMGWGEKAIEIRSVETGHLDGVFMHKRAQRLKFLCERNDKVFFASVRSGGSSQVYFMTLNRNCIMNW

Compound	KINOMEscan: MINK (panel of 442 kinases [1])	KINOMEscan: ICK (panel of 442 kinases [2])
COc1cc(C(=O)N2CCC(N3CCN(C)CC3)CC2)ccc1Nc1ncc2c(n1)N(C1CCCC1)c1ccccc1C(=O)N2C [Compound 25, 11-cyclopentyl-2-((2-methoxy-4-(4-(4-methylpiperazin-1-yl)piperidine-1-carbonyl)phenyl)amino)-5-methyl-5H-benzo[e]pyrimido[5,4-b][1,4]diazepin-6(11H)-one]	100	100
CCOc1cc(C(=O)N2CCC(N3CCN(C)CC3)CC2)ccc1Nc1ncc2c(n1)N(C1CCCC1)c1ccccc1C(=O)N2C [Compound 26]	100	100
COc1cc(C(=O)N2CCC(N3CCN(C)CC3)CC2)ccc1Nc1ncc2c(n1)N1CCc3cccc(c31)C(=O)N2C [Compound 24]	36	–
COc1cc(C(=O)N2CCC(N3CCN(C)CC3)CC2)ccc1Nc1ncc2c(n1)N(C)c1ccccc1C(=O)N2C [15 (LRRK2-IN-1)]	77	90
